Laboratory results as given in patent publication US9814740B2, “Methods and compositions combining immunotherapy with monocyte activation” (Duke University, priority 2010, dated 2017).

Tests used:
BL3750 lymphoma cells = experiment: BL3750 lymphoma model; type: in vivo, mouse
Procedure: Lymphoma model. BL3750 lymphoma cells were as described (Minard-Colin et al., 2008). This lymphoma model is accepted by those skilled in the art as a standard model for human lymphoma disease. For each experiment, tumor cells were thawed and expanded for 24-48 hours in complete medium (RPMI 1640 media containing 20% fetal bovine serum, 100 U/ml penicillin, 100 μg/ml streptomycin, 2 mM L-glutamine, and 55 μM 2-mercaptoethanol). BL3750 cells in 250 μl PBS were injected subcutaneously into the dorsal skin of recipient mice on day 0. This mouse model of lymphoma is a standard animal model for human lymphoma used and accepted by those skilled in the art. Mice were then given purified mAb in 250 μl of PBS intravenously, and starting on day 7 were monitored daily for tumor development and progression, and survival. Tumor measurements were as described (Minard-Colin et al., 2008).
CD20 immunotherapy and TLR agonist treatments. […] In some experiments, mice were treated with anti-NK1.1 mAb (100 g) on day −4 and day 3 for N K cell depletion. Macrophage deficiency was generated by tail vein injections of clodronate-encapsulated liposomes (Sigma-Aldrich) or control PBS-encapsulated liposomes (Van Rooijen and Sanders, 1994) 0.2 ml given on day −1 and 0.1 ml given on days 2, 5, and 9 (FIG. 3B) or 0.2 ml given on days −2, 1, and 4 (FIG. 3C).

[1] = compared with parent poly I:poly C; cited from earlier work
[2] = test system: purified mouse spleen B cells; experiment: Secreted IL-10 ELISA; type: cell-based; conditions: 25 μg/ml, 72 h
Procedure: Cytokine ELISA. Secreted IL-10 was quantified by ELISA. Purified B cells (4×10^5) were cultured in 0.2 ml of complete medium with TLR agoninsts (25 μg/ml) in a 96-well flat-bottom tissue culture plates. Culture supernatant fluid IL-10 concentrations were quantified using IL-10 OptEIA ELISA kits (BD PharMingen) bfollowing the manufacturer's protocols. All assays were carried out using triplicate samples.

purified spleen B cells = experiment: B cell proliferation assay (CFSE); type: cell-based, mouse; conditions: 25 μg/ml, 72 h
Procedure: Proliferation assay. Splenic B cells were purified using CD19 mAb-coated microbeads (Miltenyi) and labeled with CFSE Vybrant™ CFDA SE fluorescent dye (5 μM; Invitrogen). Labeled B cells were then cultured in medium with LPS, CpG, or poly I:C (25 μg/ml) for 72 h and assessed by flow cytometry.

[3] = test system: bone marrow CD11b+ monocytes; experiment: TLR-induced TNF-α production by CD11b+ bone marrow cells; type: cell-based, mouse; conditions: TLR agonists 25 μg/ml, 4 h, Brefeldin A
Procedure: (§1) For IL-10 detection, mouse spleen or blood mononuclear cells, BL3750 tumor cells, or human blood were resuspended (2×10^6 cells/ml) in complete medium [RPMI 1640 media (Cellgro, Herndon, Va.) containing 10% FCS (Sigma, St. Louis, Mo.). […]. 4 mM L-Glutamine (all Cellgro), and 55 μM 2-mercaptoethanol (Invitrogen, Carlsbad. CA)] with lipopolysaccharide (LPS, 10 μg/ml, Escherichia coli serotype 0111: B4, Sigma), phorbol myristate acetate (PMA, 50 ng/ml; Sigma), ionomycin (500 ng/ml; Sigma), and monensin (2 μM; eBioscience) for 5 h. B10 progenitor cells were induced to mature and acquire IL-10 competence in vitro by culturing the cells with LPS (10 μg/ml), CpG (human ODN 2006, 10 μg/ml; Invivogen, San Diego, Calif., mouse ODN 1668, 10 μg/ml; Integrated DNA Technologies, Coralville, Iowa), or poly I:C (Invivogen) for 48 h with the addition of monensin, PMA and ionomycin for the last 5 h of culture. For TNF-α detection, bone marrow cells were resuspended (2×10^6 cells/ml) in complete medium with Brefeldin A (1 μl; Biolegend) and TLR agonists (25 μg/ml) for 4 h. Before cell surface staining, Fc receptors were blocked using Fc receptor mAb (2.4G2; BD Biosciences), and dead cells were labeled using a LIVE/DEAD® Fixable Green Dead Cell Stain Kit (Invitrogen-Molecular Probes). […]

[4] = test system: human blood mononuclear cells; experiment: B10pro cell maturation in vitro (human); type: cell-based; conditions: 48 h, CpG = human ODN 2006
Procedure: as §1

FcγRII/III = FcγRII/III expression by innate effector cells after TLR agonist treatment; type: in vivo, mouse; conditions: splenocytes 18 h after treatment
Procedure: FIG. 4 is a set of graphs showing that TLR agonists induce monocyte activation and enhance CD20 mAb-induced B cell depletion. […] Splenocytes were isolated from mice 18 h later and analyzed for FcγRII/III expression by immunofluorescence staining. For FIGS. 4A-B the results represent 2 independent experiments. […] B1b and B2 cells were distinguished based on their differential expression of CD11b. […] Representative peritoneal lymphocytes of CpG-treated MyD88^-/- or wild type mice following CD20 or control mAb (25 μg) treatment. Percentages (±SEM) represent mean B220^+ cell frequencies within the indicated gates 7 days after CD20 mAb treatment (≧3 mice per value) relative to control mAb-treated littermates (n=3). In FIG. 4C-E significant differences between sample means are indicated; *p<0.05, **p<0.01. Results represent 3-4 independent experiments. Immunofluorescence analysis. CD20 expression was visualized using biotin-conjugated mouse CD20 (MB20-11) mAb (Uchida et al., 2004b) plus phycoerythrin-Cy5 (PE-Cy5) streptavidin (eBioscience, San Diego, Calif.). Other mAbs included: B220 (RA3-6B2), CD1d (1B1), CD5 (53-7.3), CD19 (1D3), NK1.1 (PK136), and I-A/I-E (M5/114.15.2) from BD Biosciences (San Jose, Calif.). CD11b (M1/70), CD86 (GL1), F4/80 (BM8), IgM (II/41), Gr-1 (RB6-8C5), and IL-10 (JES5-16E3) mAbs were from eBioscience. TNF-α (MP6-XT22) mAb was from Biolegend (San Diego, Calif.). […]

macrophages = experiment: In vitro assay of antibody-dependent phagocytosis; type: cell-based, mouse
Procedure: In vitro assay of antibody-dependent phagocytosis. Spleen B cells were purified by MACS B cell isolation (Miltenyi Biotech), labeled with CFSE Vybrant™ CFDA SE fluorescent dye (5 μM; Invitrogen) and cultured over night in complete medium. CFSE-labeled B cells were incubated with CD20 mAb (MB20-11) on ice for 1 h, and washed with complete medium to remove unbound mAb. Macrophages were isolated from the peritoneal cavity of thioglycolate-treated mice by lavage. Peritineal macrophages were further purified by adherence to plastic before culture with or without poly I:C (25 μg/ml) in complete medium at 37° C. in a 5% CO2 atmosphere for 18 h. Macrophages and B cells were mixed at a 1:1 ratio and cultured for 2.5 h. The cell mixture was then stained with PE-conjugated CD11b mAb with the percentage of CFSE^+CD11b^+ (double-positive cells) analyzed by flow cytometry.

mouse spleen B cells = experiment: B10pro cell maturation in vitro (mouse); type: cell-based; conditions: purified mouse spleen B cells, 48 h
Procedure: as §1

peritoneal B cells = experiment: Peritoneal B cell depletion by CD20 mAb with TLR agonists; type: in vivo, mouse; conditions: MyD88^−/− versus C57BL/6 mice
Description: Immunofluorescence analysis. CD20 expression was visualized using biotin-conjugated mouse CD20 (MB20-11) mAb (Uchida et al., 2004b) plus phycoerythrin-Cy5 (PE-Cy5) streptavidin (eBioscience, San Diego, Calif.). Other mAbs included: B220 (RA3-6B2), CD1d (1B1), CD5 (53-7.3), CD19 (1D3), NK1.1 (PK136), and I-A/I-E (M5/114.15.2) from BD Biosciences (San Jose, Calif.). CD11b (M1/70), CD86 (GL1), F4/80 (BM8), IgM (II/41), Gr-1 (RB6-8C5), and IL-10 (JES5-16E3) mAbs were from eBioscience. TNF-α (MP6-XT22) mAb was from Biolegend (San Diego, Calif.). For immunofluorescence analysis, single cell suspensions (10^6 cells) were stained at 4° C. using predetermined optimal concentrations of mAb for 30 minutes as described (Sato et al., 1996). CD20 immunotherapy and TLR agonist treatments. Sterile mouse anti-mouse CD20 mAb (MB20-11, IgG2c) and unreactive mouse control IgG2a mAb were as described ([…]-Colin et al., 2008). In some experiments, mice were treated with anti-NK1.1 mAb ([…]) on day -4 and day 3 for N K cell depletion. Macrophage deficiency was generated by tail vein injections of clodronate-encapsulated liposomes (Sigma-Aldrich) or control PBS-encapsulated liposomes (Van Rooijen and Sanders, 1994) 0.2 ml given on day -1 and 0.1 ml given on days 2, 5, and 9 (FIG. 3B) or 0.2 ml given on days -2, 1, and 4 (FIG. 3C). […]

[5] = 10^5 BL3750 cells day 0, control mAb plus TLR agonist on days 1, 7, 14 and 21

Row | Substance | reducing tumor growth in the mouse model (BL3750 lymphoma cells; compared with Poly (I:C)) | toxicity [1] | effect on mouse survival (BL3750 lymphoma cells; [5]) | median survival (BL3750 lymphoma cells; [5]) | IL-10 secretion [2] | B cell proliferation (purified spleen B cells) | TNF-α production by monocytes [3] | B10pro cell maturation into IL-10-competent B10 cells [4] | FcγRII/III expression by innate effector cells (FcγRII/III) | phagocytic capacity of macrophages (macrophages; macrophages from TLR3^−/− or TRIF^−/− mice) | macrophage phagocytosis of CD20 mAb-coated B cells (macrophages; wild type macrophages, poly I:C 25 μg/ml 18 h, 1:1, 2.5 h) | B10pro cell maturation into IL-10-competent B10 cells (mouse spleen B cells) | ability to enhance peritoneal B cell depletion by CD20 mAb (peritoneal B cells)
1 | polyadenylic-polyuridylic acid [Poly (A:U)] | not as effective as Poly (I:C) | – | – | – | – | – | – | – | – | – | – | – | –
2 | poly I:poly C12U [Ampligen] | – | lower toxicity | – | – | – | – | – | – | – | – | – | – | –
3 | polyinosinic-polycytidylic acid [poly I:C] | – | – | significant affect on mouse survival | 33 days | without effect | did not proliferate | induced significant TNF-α production | without effect | higher levels of FcγRII/III expression | unable to augment | significantly enhanced | without effect | –
4 | CpG: CpG ODN 1668 (5′tccATGACGTTCCTGAtgcT3′, bases in lower case are phosphorothioate); TLR9 agonist (DNA TCCATGACGTTCCTGATGCT; DNA, linkages s3 o13 s3 (s phosphorothioate, o phosphodiester), methylation of C not given here) | – | – | – | – | induced IL-10 secretion | proliferated significantly | induced significant TNF-α production | induced significant numbers of B10pro cells to mature | higher levels of FcγRII/III expression | – | – | induced significant numbers of B10pro cells to mature | significantly reduced by MyD88-deficiency
